Laboratory results from patent US20090018134A1, “Compounds - 945” (AstraZeneca AB, priority 2007, published 2009).

Key:
mTOR [1] = target: T1, mTOR (Homo sapiens, UniProt P42345); assay: mTOR Kinase Assay (Echo); type: biochemical
T1 construct: FLAG; made in house

mTOR [2] = target: T1, mTOR; assay: In Vitro mTOR Kinase Assay (Echo), Test (a)(ii); type: biochemical; settings: table of enzyme assay Test (a)(ii); read-out: Test (a)(ii) IC50
Method in brief: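 Enzyme: HEK293-expressed, FLAG-purified mTOR C-terminal fragment (aa 1362-2549). Rxn 2 h RT with biotinylated peptide, stopped with EDTA 50 mM/BSA/Tris pH 7.4. Detection: T389 phospho-antibody AlphaScreen, 680 nm excitation. IC50.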

T1 sequence (P42345 1362-2549): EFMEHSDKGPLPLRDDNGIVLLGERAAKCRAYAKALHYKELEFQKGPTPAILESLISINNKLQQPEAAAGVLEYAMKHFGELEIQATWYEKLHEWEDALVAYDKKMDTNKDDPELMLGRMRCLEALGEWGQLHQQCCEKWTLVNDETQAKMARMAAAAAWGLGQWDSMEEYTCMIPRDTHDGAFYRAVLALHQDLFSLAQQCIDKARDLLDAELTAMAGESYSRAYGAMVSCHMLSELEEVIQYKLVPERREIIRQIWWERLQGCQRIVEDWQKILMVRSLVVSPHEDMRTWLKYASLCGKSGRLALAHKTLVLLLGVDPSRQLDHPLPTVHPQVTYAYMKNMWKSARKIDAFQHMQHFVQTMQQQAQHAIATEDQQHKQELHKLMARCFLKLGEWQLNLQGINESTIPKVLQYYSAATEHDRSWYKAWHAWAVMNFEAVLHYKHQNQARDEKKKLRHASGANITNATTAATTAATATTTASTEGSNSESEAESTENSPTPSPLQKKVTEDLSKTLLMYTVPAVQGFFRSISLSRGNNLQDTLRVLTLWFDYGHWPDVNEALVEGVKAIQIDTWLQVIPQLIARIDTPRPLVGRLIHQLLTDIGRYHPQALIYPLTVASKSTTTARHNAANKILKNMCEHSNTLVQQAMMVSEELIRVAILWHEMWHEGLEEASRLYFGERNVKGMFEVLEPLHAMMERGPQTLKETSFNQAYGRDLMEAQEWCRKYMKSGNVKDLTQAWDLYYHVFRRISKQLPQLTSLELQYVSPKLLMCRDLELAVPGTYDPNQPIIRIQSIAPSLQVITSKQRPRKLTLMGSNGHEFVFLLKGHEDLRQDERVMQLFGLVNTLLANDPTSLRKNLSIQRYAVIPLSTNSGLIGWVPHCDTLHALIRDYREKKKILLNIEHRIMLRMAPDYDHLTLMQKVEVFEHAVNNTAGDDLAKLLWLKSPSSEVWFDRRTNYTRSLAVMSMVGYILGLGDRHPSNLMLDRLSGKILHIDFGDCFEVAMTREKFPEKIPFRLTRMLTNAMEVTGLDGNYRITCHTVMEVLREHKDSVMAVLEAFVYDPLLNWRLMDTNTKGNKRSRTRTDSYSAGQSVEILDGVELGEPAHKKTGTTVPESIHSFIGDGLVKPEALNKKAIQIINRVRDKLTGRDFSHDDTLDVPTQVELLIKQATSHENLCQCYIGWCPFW

| Structure (SMILES) | IC50 (mTOR [1]) [nM] | IC50 (mTOR [2]) [nM] |
| --- | --- | --- |
| Cc1csc(S(=O)(=O)C2(c3cc(N4CCOC[C@@H]4C)nc(-c4ccc(NC(=O)NC(C)C)cc4)n3)CC2)n1 [Example 25d, 1-[4-[4-[(3S)-3-methylmorpholin-4-yl]-6-[1-[(4-methyl-1,3-thiazol-2-yl)sulfonyl]cyclopropyl]pyrimidin-2-yl]phenyl]-3-propan-2-ylurea] | 1.57 | 1.52 |
| Cc1csc(S(=O)(=O)C2(c3cc(N4CCOC[C@@H]4C)nc(-c4ccc(NC(=O)NCCO)cc4)n3)CC2)n1 [Example 25g, 3-(2-hydroxyethyl)-1-[4-[4-[(3S)-3-methylmorpholin-4-yl]-6-[1-[(4-methyl-1,3-thiazol-2-yl)sulfonyl]cyclopropyl]pyrimidin-2-yl]phenyl]urea] | 1.19 | 1.43 |
| C[C@H]1COCCN1c1cc(C2(S(=O)(=O)c3ccc(Cl)cc3)CC2)nc(-c2ccc(NC(=O)NC3CC3)cc2)n1 [Example 27, 1-[4-[4-[1-(4-Chlorophenyl)sulfonylcyclopropyl]-6-[(3S)-3-methylmorpholin-4-yl]pyrimidin-2-yl]phenyl]-3-cyclopropylurea] | 1.44 | 1.11 |
| CNC(=O)Nc1ccc(-c2nc(N3CCOC[C@@H]3C)cc(C3(S(=O)(=O)c4ccc(Cl)cc4)CC3)n2)cc1 [Example 27e, 1-[4-[4-[1-(4-chlorophenyl)sulfonylcyclopropyl]-6-[(3S)-3-methylmorpholin-4-yl]pyrimidin-2-yl]phenyl]-3-methylurea] | 0.719 | 0.351 |
| CCNC(=O)Nc1ccc(-c2nc(N3CCOC[C@@H]3C)cc(C3(S(=O)(=O)c4ccc(Cl)cc4)CC3)n2)cc1 [Example 27f, 3-[4-[4-[1-(4-chlorophenyl)sulfonylcyclopropyl]-6-[(3S)-3-methylmorpholin-4-yl]pyrimidin-2-yl]phenyl]-1-ethylurea] | 0.959 | 0.997 |
| C[C@H]1COCCN1c1cc(C2(S(=O)(=O)c3ccc(Cl)cc3)CC2)nc(-c2ccc(NC(=O)NCCN(C)C)cc2)n1 [Example 27g, 1-[4-[4-[1-(4-chlorophenyl)sulfonylcyclopropyl]-6-[(3S)-3-methylmorpholin-4-yl]pyrimidin-2-yl]phenyl]-3-(2-dimethylaminoethyl)urea] | 18.9 | 21.3 |
| C[C@H]1COCCN1c1cc(C2(S(=O)(=O)c3ccc(Cl)cc3)CC2)nc(-c2ccc(NC(=O)NCCO)cc2)n1 [Example 27h, 1-[4-[4-[1-(4-chlorophenyl)sulfonylcyclopropyl]-6-[(3S)-3-methylmorpholin-4-yl]pyrimidin-2-yl]phenyl]-3-(2-hydroxyethyl)urea] | 0.0856 | 0.244 |
| C[C@H]1COCCN1c1cc(C2(S(=O)(=O)c3ccccn3)CC2)nc(-c2ccc(NC(=O)NC3CC3)cc2)n1 [Example 28, 3-Cyclopropyl-1-[4-[4-[(3S)-3-methylmorpholin-4-yl]-6-(1-pyridin-2-ylsulfonylcyclopropyl)pyrimidin-2-yl]phenyl]urea] | 0.816 | 1.87 |
| C[C@H]1COCCN1c1cc(C2(S(=O)(=O)c3ccccn3)CC2)nc(-c2ccc(NC(=O)NCCO)cc2)n1 [Example 28g, 3-(2-hydroxyethyl)-1-[4-[4-[(3S)-3-methylmorpholin-4-yl]-6-(1-pyridin-2-ylsulfonylcyclopropyl)pyrimidin-2-yl]phenyl]urea] | 11.8 | 1.18 |

The next lines start with the values.

| IC50 (mTOR [1]) [nM] | IC50 (mTOR [2]) [nM] | Structure (SMILES) |
| --- | --- | --- |
| 2.58 | 2.55 | C[C@H]1COCCN1c1cc(C2(S(=O)(=O)c3ccccn3)CCC2)nc(-c2ccc(NC(=O)Nc3cnn(C)c3)cc2)n1 [Example 36aj, 1-[4-[4-[(3S)-3-methylmorpholin-4-yl]-6-(1-pyridin-2-ylsulfonylcyclobutyl)pyrimidin-2-yl]phenyl]-3-(1-methylpyrazol-4-yl)urea] |
| 18.7 | 16.1 | O=C(Nc1ccc(-c2nc(N3CCOCC3)cc(C3(S(=O)(=O)c4ccc(F)cc4)CC3)n2)cc1)NC1CC1 [Example 36al, 3-cyclopropyl-1-[4-[4-[1-(4-fluorophenyl)sulfonylcyclopropyl]-6-morpholin-4-ylpyrimidin-2-yl]phenyl]urea] |
| 27.7 | 25.9 | N#CCCNC(=O)Nc1ccc(-c2nc(N3CCOCC3)cc(C3(S(=O)(=O)c4ccc(F)cc4)CC3)n2)cc1 [Example 36am, 3-(2-cyanoethyl)-1-[4-[4-[1-(4-fluorophenyl)sulfonylcyclopropyl]-6-morpholin-4-ylpyrimidin-2-yl]phenyl]urea] |
| 1.49 | 1.05 | Cc1cnc(NC(=O)Nc2ccc(-c3nc(N4CCOC[C@@H]4C)cc(C4(S(C)(=O)=O)CC4)n3)cc2)cn1 [Example 36az, 3-[4-[4-[(3S)-3-methylmorpholin-4-yl]-6-(1-methylsulfonylcyclopropyl)pyri-midin-2-yl]phenyl]-1-(5-methylpyrazin-2-yl)urea] |
| 3.12 | 1.67 | C[C@H]1COCCN1c1cc(C2(S(C)(=O)=O)CC2)nc(-c2ccc(NC(=O)Nc3ncco3)cc2)n1 [Example 36ba, 1-[4-[4-[(3S)-3-methylmorpholin-4-yl]-6-(1-methylsulfonylcyclopropyl)pyri-midin-2-yl]phenyl]-3-(1,3-oxazol-2-yl)urea] |
| 20.5 | 5.13 | C[C@H]1COCCN1c1cc(C2(S(C)(=O)=O)CC2)nc(-c2ccc(NC(=O)NCCCO)cc2)n1 [Example 36bb, 3-(3-hydroxypropyl)-1-[4-[4-[(3S)-3-methylmorpholin-4-yl]-6-(1-methylsulfonylcyclopropyl)pyri-midin-2-yl]phenyl]urea] |
| 2.05 | 2.85 | C[C@H]1COCCN1c1cc(C2(S(=O)(=O)c3ccccc3)CC2)nc(-c2ccc(NC(=O)NC3CC3)cc2)n1 [Example 36bc, 1-[4-[4-[1-(benzenesulfonyl)cyclopropyl]-6-[(3S)-3-methylmorpholin-4-yl]pyrimidin-2-yl]phenyl]-3-cyclopropylurea] |
| 0.922 | 1.89 | CCNC(=O)Nc1ccc(-c2nc(N3CCOC[C@@H]3C)cc(C3(S(=O)(=O)c4ccccc4)CC3)n2)cc1 [Example 36bg, 3-[4-[4-[1-(benzenesulfonyl)cyclopropyl]-6-[(3S)-3-methylmorpholin-4-yl]pyrimidin-2-yl]phenyl]-1-ethylurea] |
| 1.21 | 1.37 | C[C@H]1COCCN1c1cc(C2(S(=O)(=O)c3ccccc3)CC2)nc(-c2ccc(NC(=O)NCCO)cc2)n1 [Example 36bh, 1-[4-[4-[1-(benzenesulfonyl)cyclopropyl]-6-[(3S)-3-methylmorpholin-4-yl]pyrimidin-2-yl]phenyl]-3-(2-hydroxyethyl)urea] |
| 0.621 | 1.06 | CNC(=O)Nc1ccc(-c2nc(N3CCOC[C@@H]3C)cc(C3(S(=O)(=O)c4ccccc4)CC3)n2)cc1 [Example 36bj, 1-[4-[4-[1-(benzenesulfonyl)cyclopropyl]-6-[(3S)-3-methylmorpholin-4-yl]pyrimidin-2-yl]phenyl]-3-methylurea] |
| 2.08 | 3.33 | C[C@H]1COCCN1c1cc(C2(S(=O)(=O)c3ccccc3)CC2)nc(-c2ccc(NC(=O)NCCCO)cc2)n1 [Example 36bl, 1-[4-[4-[1-(benzenesulfonyl)cyclopropyl]-6-[(3S)-3-methylmorpholin-4-yl]pyrimidin-2-yl]phenyl]-3-(3-hydroxypropyl)urea] |
| 1.61 | 2.64 | C[C@H]1COCCN1c1cc(C2(S(=O)(=O)c3ccccc3)CCC2)nc(-c2ccc(NC(=O)NC3CC3)cc2)n1 [Example 36bs, 1-[4-[4-[1-(benzenesulfonyl)cyclobutyl]-6-[(3S)-3-methylmorpholin-4-yl]pyrimidin-2-yl]phenyl]-3-cyclopropylurea] |
| 1.05 | 1.88 | C[C@H]1COCCN1c1cc(C2(S(=O)(=O)c3ccccc3)CCC2)nc(-c2ccc(NC(=O)NCCO)cc2)n1 [Example 36bt, 1-[4-[4-[1-(benzenesulfonyl)cyclobutyl]-6-[(3S)-3-methylmorpholin-4-yl]pyrimidin-2-yl]phenyl]-3-(2-hydroxyethyl)urea] |
| 3 | 4.88 | CNC(=S)Nc1ccc(-c2nc(N3CCOC[C@@H]3C)cc(C3(S(=O)(=O)c4ccccc4)CC3)n2)cc1 [Example 37ab, 1-[4-[4-[1-(benzenesulfonyl)cyclopropyl]-6-[(3S)-3-methylmorpholin-4-yl]pyrimidin-2-yl]phenyl]-3-methylthiourea] |
| 29.8 | 43.8 | C[C@H]1COCCN1c1cc(C2(S(=O)(=O)c3ccccc3)CC2)nc(-c2ccc(NC(=S)NCc3ncc[nH]3)cc2)n1 [Example 37ac, 1-[4-[4-[1-(benzenesulfonyl)cyclopropyl]-6-[(3S)-3-methylmorpholin-4-yl]pyrimidin-2-yl]phenyl]-3-(1H-imidazol-2-ylmethyl)thiourea] |
| 13.2 | 19.8 | C[C@H]1COCCN1c1cc(C2(S(=O)(=O)CCCO)CC2)nc(-c2ccc(NC(=S)NC3CC3)cc2)n1 [Example 37h, 3-cyclopropyl-1-[4-[4-[1-(3-hydroxypropylsulfonyl)cyclopro-pyl]-6-[(3S)-3-methylmorpholin-4-yl]pyrimidin-2-yl]phenyl]thiourea] |
| 3.06 | 3.79 | C[C@H]1COCCN1c1cc(C2(S(=O)(=O)CCCO)CC2)nc(-c2ccc(NC(=S)NCCO)cc2)n1 [Example 37i, 3-(2-hydroxyethyl)-1-[4-[4-[1-(3-hydroxypropylsulfonyl)cyclopro-pyl]-6-[(3S)-3-methylmorpholin-4-yl]pyrimidin-2-yl]phenyl]thiourea] |
| 11.4 | 16.1 | CCNC(=S)Nc1ccc(-c2nc(N3CCOC[C@@H]3C)cc(C3(S(=O)(=O)CCCO)CC3)n2)cc1 [Example 37k, 1-ethyl-3-[4-[4-[1-(3-hydroxypropylsulfonyl)cyclopro-pyl]-6-[(3S)-3-methylmorpholin-4-yl]pyrimidin-2-yl]phenyl]thiourea] |
